Data from ChEMBL document CHEMBL4706519, “Evaluation of N-phenyl-2-aminothiazoles for treatment of multi-drug resistant and intracellular Staphylococcus aureus infections” (Eur J Med Chem, 2020).
In brackets after ≈: the same amount, converted by molar mass.

What was measured:
Staphylococcus aureus [1] = assay: Ratio of MBC to MIC against methicillin-sensitive Staphylococcus aureus NRS107 assessed as inhibition of bacterial growth measured after 18 to 20 hrs by CLSI protocol based broth microdilution method; type: functional; settings: time 18-20 hrs
Staphylococcus aureus [2] = assay: microbe, parasite or virus in culture; settings: USA700 NRS386
Staphylococcus aureus [3] = assay: Bactericidal activity against methicillin-resistant Staphylococcus aureus USA400 NRS123 assessed as eradication of bacterial count at 5 times MIC incubated for 8 hrs in soy broth followed by incubation for 18 to 20 hrs on agar plate by time kill assay; type: functional; settings: time 26-28 hrs
Streptococcus pneumoniae [4] = assay: Ratio of MBC to MIC for methicillin-resistant Streptococcus pneumoniae ATCC 700677 assessed as inhibition of bacterial growth measured after 18 to 20 hrs by CLSI protocol based broth microdilution method; type: functional; settings: time 18-20 hrs
in vitro = settings: human, liver microsomes
[5] = Intrinsic clearance in human liver microsomes at 0.1 uM in absence of NADPH measured upto 60 mins by LC/MS/MS analysis; type: ADME, Microsome; settings: read-out: CLH
Staphylococcus aureus [6] = assay: microbe, parasite or virus in culture; settings: NRS119
[7] = Selectivity index, ratio of maximum non-toxic concentration for human Caco-2 cells to MIC for methicillin-resistant Staphylococcus aureus NRS119; type: toxicity
Escherichia coli = assay: Antibacterial activity against wild type Escherichia coli BW25113 assessed as inhibition of bacterial growth measured after 18 to 20 hrs by broth microdilution method; type: functional; settings: time 18-20 hrs
Streptococcus pneumoniae [8] = assay: Ratio of MBC to MIC for cephalosporin-resistant Streptococcus pneumoniae ATCC 51916 assessed as inhibition of bacterial growth measured after 18 to 20 hrs by CLSI protocol based broth microdilution method; type: functional; settings: time 18-20 hrs
Listeria monocytogenes = assay: Ratio of MBC to MIC for Listeria monocytogenes ATCC 19111 assessed as inhibition of bacterial growth measured after 18 to 20 hrs by CLSI protocol based broth microdilution method; type: functional; settings: time 18-20 hrs

SMILES: C/C(=N\NC(=N)N)c1ccc(Nc2nc(-c3ccc(C)cc3)cs2)cc1
- Ratio (Staphylococcus aureus [1]): 1
- MBC (Staphylococcus aureus [2]): 2 µg/mL (≈ 5.49 µM)
- MIC (Staphylococcus aureus [2]): 2 µg/mL (≈ 5.49 µM)
- Activity (Staphylococcus aureus [3]): 100%
- Ratio (Streptococcus pneumoniae [4]): 1
- microsomal CLint at 1 h, 0.1 µM (in vitro): 58.9 µL/min/mg
- microsomal CLint at 0.1 µM [5]: 27.3 µL/min/mg
- MBC (Staphylococcus aureus [6]): 4 µg/mL (≈ 11 µM)
- MIC (Staphylococcus aureus [6]): 2 µg/mL (≈ 5.49 µM)
- selectivity ratio [7]: 16
- MIC (Escherichia coli): 16 µg/mL (≈ 43.9 µM)
- Ratio (Streptococcus pneumoniae [8]): 1
- Ratio (Listeria monocytogenes): 1
